Test results from US20250127702A1, “SUNSCREEN COMPOSITION WITH CRYSTALLINE ORGANIC SUNSCREEN FILTERS” (Edgewell Personal Care Brands, LLC, priority 2021, published 2025).

Assay: Amount of solvent needed to solubilize crystalline sunscreen filters
Type: physicochemical
Conditions: solvent: butyloctyl salicylate, capric/caprylic triglyceride
Excerpt: This is unexpected since it theoretically takes at least 37 g of the solvent combination to solvate 3 g of bis-ethylhexyloxyphenol methoxyphenyl triazine (a filter that is harder to solubilize than even avobenzone). Similarly, the theoretical amount of octocrylene, homosalate, octisalate, octinoxate, ethylhexyl benzoate and C12-C15 alkyl benzoate to solvate 3 g of bis-ethylhexyloxyphenol methoxyphenyl triazine is 21 g. […] Additional benefits from relatively less solvent content, such as migration benefits, are discussed below.
This is unexpected since it theoretically takes at least 37 g of the solvent combination to solvate 3 g of bis-ethylhexyloxyphenol methoxyphenyl triazine (a filter that is harder to solubilize than even avobenzone) and 42.8 g of the solvent combination to solvate 15.5 g of the crystalline filter combination.

With `CCCCC(CC)COc1ccc(-c2nc(-c3ccc(OC)cc3)nc(-c3ccc(OCC(CC)CCCC)cc3O)n2)c(O)c1` (centres unmarked) [bis-ethylhexyloxyphenol methoxyphenyl triazine] the “theoretical amount of the solvent combination to solvate 3 g” value (diisobutyl adipate, diethylhexyl maleate, butyl maleate, butyl oleate, isopropyl myristate) was “at least 37 g” and the “theoretical amount of the solvent combination to solvate 3 g” value (dibutyl adipate and/or diisopropyl adipate) was “at least 37 g”.
